# Results taken from publication PMC10680739 (bioRxiv, 2023).
# Where two headings read alike, the source gives them in different places.
# Columns and labels:
# HgmTad2 [1] = assay type: binding, Bacteroides phages (human gut metagenomic libraries)
# ColiTad1 = assay type: binding, Colidexitribacter sp. OB.20; settings: native gel combined with ITC
# SBS Tad1 [2] = target: T1, SBS Tad1 (Bacillus phage SBSphiJ7, UniProt P0DW57); assay type: binding, Bacillus cereus phage SBSphiJ7; settings: native gel combined with ITC
# CmTad1 = CmTad1 (Clostridioides mangenotii, UniProt P0DW61); assay type: binding, Clostridioides mangenotii prophage; settings: for binding to CmTad1 in words: among the CDNs tested
# SBS Tad1 [3] = target: T1, SBS Tad1; test: biochemical; assay type: binding, Bacillus cereus phage SBSphiJ7
# SPO1 Tad2 = SPO1 Tad2 (Bacillus phage SP01, UniProt B6V311); assay type: binding, Bacillus cereus phage SPO1; settings: HPLC; 40 μM protein, 4 μM ligand
# HgmTad2 [4] = assay type: binding, Bacteroides phages (human gut metagenomic libraries); settings: HPLC; HgmTad2 of State 1; 40 μM protein, 4 μM ligand
# [5] = native PAGE, HgmTad2 of State 1
# T1 sequence (P0DW57 whole entry, looked up): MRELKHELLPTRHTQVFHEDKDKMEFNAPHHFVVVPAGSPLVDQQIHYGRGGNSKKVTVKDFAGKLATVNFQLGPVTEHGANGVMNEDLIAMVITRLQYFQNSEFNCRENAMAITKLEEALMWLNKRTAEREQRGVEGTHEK
# Sequence of CmTad1 (P0DW61 whole entry): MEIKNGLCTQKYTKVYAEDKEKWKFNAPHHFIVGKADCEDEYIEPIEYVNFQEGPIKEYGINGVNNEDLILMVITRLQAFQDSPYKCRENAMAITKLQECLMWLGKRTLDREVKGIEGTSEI
# Sequence of SPO1 Tad2 (B6V311 whole entry, looked up): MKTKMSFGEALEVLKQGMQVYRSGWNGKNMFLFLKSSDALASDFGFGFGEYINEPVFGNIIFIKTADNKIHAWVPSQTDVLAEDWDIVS
compound,measurement,setting,value
Nc1ncnc2c1ncn2[C@@H]1O[C@@H]2COP(=O)(O)OP(=O)(O)OC[C@H]3OC(O[C@@H]1[C@@H]2O)[C@H](O)[C@@H]3O [1''-2' gcADPR],native gel shift of HgmTad2 upon adding ligand,"HgmTad2 [1]; native gel, purified HgmTad2 in all the three states",shift
"Nc1nc2c(ncn2[C@@H]2O[C@@H]3COP(=O)(O)O[C@@H]4[C@H](O)[C@@H](COP(=O)(O)O[C@H]3[C@H]2O)O[C@H]4n2cnc3c(N)ncnc32)c(=O)[nH]1 [3',2'-cGAMP]",binding affinity to ColiTad1 in words,ColiTad1,low affinity
same,binding affinity to SBS Tad1 in words,SBS Tad1 [2],low affinity
Nc1nc2c(ncn2[C@@H]2O[C@@H]3COP(=O)(O)O[C@H]4[C@@H](O)[C@H](n5cnc6c(N)ncnc65)O[C@@H]4COP(=O)(O)O[C@H]4[C@@H](O)[C@H](n5cnc6c(N)ncnc65)O[C@@H]4COP(=O)(O)O[C@H]3[C@H]2O)c(=O)[nH]1 [cAAG],native gel shift of CmTad1 upon adding ligand,"CmTad1; native PAGE, protein 20 μM",shift
Nc1nc2c(ncn2[C@@H]2O[C@@H]3COP(=O)(O)O[C@H]4[C@@H](O)[C@H](n5ccc(=O)[nH]c5=O)O[C@@H]4COP(=O)(O)O[C@H]3[C@H]2O)c(=O)[nH]1 [cUG],native gel shift of HgmTad2 upon adding ligand,HgmTad2 [1]; [5],significant shift
"Nc1nc2c(ncn2[C@@H]2O[C@@H]3COP(=O)(O)O[C@H]4[C@@H](O)[C@H](n5cnc6c(N)ncnc65)O[C@@H]4COP(=O)(O)O[C@H]3[C@H]2O)c(=O)[nH]1 [3',3'-cGAMP]",binding affinity to ColiTad1 in words,ColiTad1,low affinity
same,Kd,SBS Tad1 [3],0.0487 µM
same,depletion of ligand after incubation with SPO1 Tad2,SPO1 Tad2,does not deplete
same,binding to CmTad1 in words,CmTad1,weak binding
same,depletion of ligand after incubation with HgmTad2,HgmTad2 [4],depletes
same,native gel shift of HgmTad2 upon adding ligand,HgmTad2 [1]; [5],significant shift
Nc1ncnc2c1ncn2[C@@H]1O[C@@H]2COP(=O)(O)O[C@H]3[C@@H](O)[C@H](n4ccc(=O)[nH]c4=O)O[C@@H]3COP(=O)(O)O[C@H]2[C@H]1O [cUA],Kd,SBS Tad1 [3],0.0539 µM
same,binding to CmTad1 in words,CmTad1,weak binding
"Nc1nc2c(ncn2[C@@H]2O[C@@H]3COP(=O)(O)O[C@H]4[C@@H](O)[C@H](n5cnc6c(=O)[nH]c(N)nc65)O[C@@H]4COP(=O)(O)O[C@H]3[C@H]2O)c(=O)[nH]1 [cGG, 3’,3’-cyclic di-GMP]",native gel shift of HgmTad2 upon adding ligand,HgmTad2 [1]; [5],significant shift
"Nc1nc2c(ncn2[C@@H]2O[C@@H]3COP(=O)(O)O[C@H]4[C@@H](O)[C@H](n5cnc6c(N)ncnc65)O[C@@H]4COP(=O)(O)O[C@@H]2[C@@H]3O)c(=O)[nH]1 [2',3'-cGAMP]",binding affinity to ColiTad1 in words,ColiTad1,high affinity
